# Measured values: ChEMBL document CHEMBL1833885 (Bioorg Med Chem Lett, 2011)
# Columns and labels:
# Carbonic anhydrase 9 = Carbonic anhydrase 9 (Homo sapiens, UniProt Q16790)
# Carbonic anhydrase 1 = Carbonic anhydrase 1 (Homo sapiens, UniProt P00915); test: Inhibition of human carbonic anhydrase 1-catalyzed CO2 hydration activity by stopped flow assay
# Carbonic anhydrase 1, sequence (P00915 whole entry): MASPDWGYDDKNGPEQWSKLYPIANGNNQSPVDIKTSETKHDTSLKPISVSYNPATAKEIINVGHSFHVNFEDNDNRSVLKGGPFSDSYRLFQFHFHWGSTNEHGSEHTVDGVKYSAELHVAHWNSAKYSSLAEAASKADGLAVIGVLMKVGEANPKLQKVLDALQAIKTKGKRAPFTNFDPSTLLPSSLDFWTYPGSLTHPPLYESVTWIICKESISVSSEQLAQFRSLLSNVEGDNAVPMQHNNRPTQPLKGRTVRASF
SMILES,Ki (Carbonic anhydrase 9) [µM],Ki (Carbonic anhydrase 1) [µM]
COc1cccc(C#Cc2ccc(S(N)(=O)=O)cc2)c1,0.0065,
NS(=O)(=O)c1ccc(C#Cc2cccc(F)c2)cc1,0.0058,
NS(=O)(=O)c1ccccc1C#Cc1ccccc1,6.37,
Cc1ccc(C#Cc2ccccc2S(N)(=O)=O)cc1,8.6,674
NS(=O)(=O)c1ccccc1C#Cc1cccc(F)c1,8.45,416
